The source of these data is a melting point compilation (Tetko et al.; mined from patent text by program, amines drawn as free bases though some values may be those of a salt).

A value given as a limit tells only on which side of the number the result lay.

By melting point is commonly meant the temperature, or range, at which the solid turns liquid.

Take `Cc1ccccc1-c1c(NC(=O)Nc2ccc(F)cc2F)c(=O)oc2ccc(Cl)cc12`: the melting point fell in the range of 210 to 212 °C.

Consider `CC(Cl)(Cl)C(NC(=O)c1cc(F)cc(F)c1)NC(=NC#N)Nc1ccc(C(F)(F)F)nc1` (stereo not drawn), for which the melting point lay within 202 to 203 °C.

`CCOC(=O)c1cc2cccc(N(CC)S(=O)(=O)c3cccs3)c2[nH]1`: the melting point is 124 to 125 °C.

The compound `O=C(O)C1CCCc2c(-c3ccc(Cl)c(Cl)c3)noc2C1` (stereo not drawn) had a melting point of 183 to 185 °C.

In the case of `CCCNC(=S)NS(=O)(=O)c1cc2c(cc1OC)OCCC2CNC(=O)c1cc(Cl)ccc1OC` (stereo not drawn), the melting point was in the range of 183 to 184 °C.

Compound `Cc1c(N2C[C@@H](N)[C@@H](C(C)C)C2)c(F)cc2c(=O)c(C(=O)O)cn([C@@H]3C[C@@H]3F)c12` gave a melting point of 124 to 127 °C.

As for `O=C(c1ccc2c(c1)OCCO2)c1ccc2[nH]c(=O)nc(-c3cccc(Cl)c3)c2c1`, the melting point was found to be 255 °C.

As for `CSSc1ccc([N+](=O)[O-])cc1`, the melting point lay in the range of 42.9 to 44.3 °C.

`O=C(Cn1c(=O)c(=O)[nH]c2cc([N+](=O)[O-])c(-n3cccc3)cc21)NCc1ccccc1` came in with a melting point of more than 300 °C.

`COC(=O)c1cc(C(=O)NNC(=O)c2ccco2)c2cc(Cc3ccc(F)cc3)cnc2c1O` showed a melting point of 207 to 210 °C.

As for `COC(=O)C(C)Nc1ccc(F)c(F)c1F` (stereo not drawn), the melting point lay in the range of 41 to 43 °C.

Turning to `O=c1oc2ccccc2c2ccc(O)c(O)c12`, the melting point is 185 to 187 °C.

For the compound `ON=C1CC(c2ccccc2)c2ccccc21` (stereo not drawn), the melting point fell in the range of 123 to 125 °C.

`COc1ccc(-n2nc(S)nc2-c2ccccc2)cc1`: the melting point is 260 °C.

For the compound `CC(=O)OC1(C(=O)CO)CCC2C3CCC4=CC(=O)C=CC4(C)C3C(O)CC21C` (stereo not drawn), the melting point lay in the range of 223 to 224 °C.

Turning to `O=C(OC(c1ccccc1)c1ccccc1)C1=CCC2CC(=O)C12` (stereo not drawn), the melting point was 115 to 116 °C.

In the case of `CC(C)n1c(=O)oc2cc(N3C[C@H](C(N)=O)OC3=O)ccc21`, the melting point is 182 to 184 °C.

Compound `O=C(CCl)N(c1ccccc1)c1cccc(F)c1` returned a melting point of 115 to 117 °C.

For the compound `Cc1ccc(-c2ccc3c(c2)C=C(C(=O)Nc2ccc(CN4CCCCC4)cc2)CC(c2ccccc2)O3)cc1` (stereo not drawn), the melting point is 210 to 211 °C.

Compound `CC(C)(CO)c1ccc(C=O)c(O)c1` had a melting point of 80.4 to 81.9 °C.

The compound `Cc1cc(C)c2cnc(=O)n(CCN(C)C)c2n1` displayed a melting point of 137 to 139 °C.

In turn, `CC(C)Nc1cccnc1N1CCN(C(=O)c2cc3cc(NS(=O)(=O)N4CCOCC4)ccc3[nH]2)CC1` showed a melting point of 210 to 212 °C.

Turning to `CC12CCC(C(=Cc3ccc([N+](=O)[O-])cc3)C1=O)C2(C)C` (stereo not drawn), the melting point was determined as 158 °C.

With `Cc1c(-c2ccccc2)oc2c(NC(=O)NCCCl)cccc2c1=O`, the melting point was in the range of 213 to 214 °C.

In the case of `CC(C)(C)C(=O)C(Oc1ccc(Cl)cc1)c1ccccc1` (stereo not drawn), the melting point turned out to be 103 °C.

As for `Cc1ccccc1SN(C)C(=O)Oc1cccc2c1OC(C)(C)C2`, the melting point was found to be 78 °C.

In the case of `O=C1N(Cc2cccnc2C(F)(F)F)c2ccccc2C12COc1cc3c(cc12)OCCO3` (stereo not drawn), the melting point was 219 to 220 °C.

The compound `N=C(NCc1ccccc1)NN=Cc1c(Cl)cccc1Cl` came in with a melting point of 70 to 80 °C.

`Cc1cc(C)n(-c2cc(OS(C)(=O)=O)c(Cl)cc2F)n1` registered a melting point of 77.5 to 79 °C.

For the compound `COC(=O)c1cn2c(=O)c(Cl)c(C)nc2s1`, the melting point lay within 218 to 220 °C.

The compound `COc1ccc(Sc2nccn2C)c([N+](=O)[O-])c1` showed a melting point of 117 to 120 °C.

Compound `COc1cc(C)cc(OC)c1-c1nc(N)n[nH]1` registered a melting point of 286 °C.

Compound `CCOc1cc(COc2cc(CCC(=O)O)n(-c3ccccc3)n2)cc(COc2ccc(Cl)cc2Cl)c1` gave a melting point of 152 °C.

Compound `CC(C)n1cc(-c2nc(C(N)=O)c(N)nc2-c2cccc(OC(F)(F)F)c2)ccc1=O` came in with a melting point of 266 °C.

Regarding `CC(C)C1SC=CNC1=O` (racemic), the melting point was 101 to 106 °C.

Consider `O=c1oc2c(c(O)c1C(c1cc(NS(=O)(=O)c3cccc4cccnc34)cc(NS(=O)(=O)c3cccc4cccnc34)c1)C1CC1)CCCCCC2` (stereo not drawn), for which the melting point was in the range of 139 to 145 °C.

`Cc1cc2oc(NC(=O)Nc3c(C)cccc3C)c(-c3ccccc3Cl)c2cc1C` registered a melting point of 252 to 254 °C.

`CCOCC1=C(C(=O)OCC)C(c2ccccc2)C(C(=O)OCC)=C(C)N1` (stereo not drawn): the melting point was determined as 112 °C.

Regarding `CCCCc1ncc(CCNC(CCc2ccccc2)C(=O)O)n1Cc1ccccc1Cl` (stereo not drawn), the melting point came out at 123 °C.

For `O=C(OC(Cc1c[nH]cn1)C(=O)O)C(Cc1ccccc1)Cc1ccccc1` (stereo not drawn), the melting point is 210 °C.

In turn, `CCc1ccc(-c2sc(NC(=O)c3ccc(S(=O)(=O)N4CCCC4C(=O)O)cc3)nc2-c2ccc(Cl)cc2)cc1` (stereo not drawn) returned a melting point of 289 to 292 °C.

For `O=Cc1cccc(Cl)c1SCc1ccccc1`, the melting point lay in the range of 65 to 68 °C.

In turn, `O=C(Nc1ccccc1)c1c(C(=S)Nc2ccccc2)cccc1-c1ccccc1` registered a melting point of 150 to 152 °C.

As to `O=C1OC(c2cccc3ccccc23)=NC1=Cc1ccccc1`, the melting point lay within 134 to 137 °C.

In turn, `CCOC(=O)c1cc(C(=O)c2ccccc2Cl)c(-n2c(C)nnc2CNC(=O)Nc2cccc(OC)c2)s1` registered a melting point of 132 to 134 °C.

Take `O=C(O)C1(C2CCCc3ccccc32)CC1` (stereo not drawn): the melting point is 140 to 142 °C.

The compound `O=c1c2c([nH]n1-c1ccc(Cl)cc1)-c1cc(Cl)ccc1SC2` displayed a melting point of 237 to 240 °C.

The compound `COC(=O)C(NC(=S)n1nc(Oc2ncc(C(F)(F)F)cc2Cl)cc1C)C(C)C` (stereo not drawn) registered a melting point of 109 to 110 °C.

With `CCCn1c(=O)nc(SC)c2c1ncn2C`, the melting point lay within 225 to 226 °C.

Compound `C=CCOC(=O)c1cnn(-c2c(Cl)cc(Br)cc2Cl)c1N` registered a melting point of 85 °C.

For `C=CCC1C(=O)N(Cc2ccccc2)c2ccccc2N(C(=O)CN2C(=O)c3ccccc3C2=O)C1C` (stereo not drawn), the melting point is 218 to 219 °C.

The compound `O=C1CCn2c1c(Sc1ccccc1)c1ccccc12` returned a melting point of 179 to 181 °C.

Compound `CC(=O)Oc1ccc(Cc2ccc(C(=O)O)nc2)cc1` registered a melting point of 116 to 119 °C.

The compound `COc1ccc(CCNc2cc(-n3cccn3)nc(-c3cccs3)n2)cc1` came in with a melting point of 99.6 to 100 °C.

For the compound `O=C(O)C1c2ccccc2COc2ccc(Br)cc21` (stereo not drawn), the melting point lay within 166 to 167 °C.

With `COc1ccc(-c2[nH]nc3c2C(=O)c2c(NC(=O)C4CCC4)cccc2-3)cc1`, the melting point came to 297 °C.

As for `CS(=O)(=O)N(c1cccc(C(=O)Nc2nccs2)c1)C1CN(C(c2ccc(Cl)cc2)c2ccc(Cl)cc2)C1`, the melting point came to 244 °C.

`CCn1cc(Cl)nc(SCC(=O)Nc2ccccc2)c1=O` came in with a melting point of 156 to 158 °C.

With `CC(=O)OCc1cc2cc(-c3ccc(OC(F)(F)F)cc3)ccc2n1Cc1ccc(C)cc1`, the melting point was in the range of 125 to 126 °C.

`O=C(Nc1ccccc1)c1ccc2c(c1)S(=O)(=O)N=CN2C1CC1` yielded a melting point of 293 to 296 °C.

Compound `CN(CCCCNC(=NCCSCc1csc(NC(=N)N)n1)NC#N)CCN(Cc1ccc(F)cc1)c1ccccn1` came in with a melting point of 137 °C.

`COc1cccc2c(=O)n3c(cc12)SCCC3` displayed a melting point of 117 to 118 °C.

In turn, `O=c1c2ccc(O)cc2oc2c1oc1ccccc12` came in with a melting point of more than 300 °C.

As for `CCOC(=O)c1cn(-c2nccs2)c2nc(N3CCC(NC(=O)[C@H](C)NC(=O)OC(C)(C)C)C3)ccc2c1=O` (stereo partly drawn), the melting point is 138 to 140 °C.

Compound `CCOC(=O)C(=O)CSc1ccc(-c2ccccc2)cc1` gave a melting point of 154 to 156 °C.

As for `CCn1cc(C(=O)O)c(=O)c2cc(F)c(N3Cc4ccc(C(=O)OC)cc4C3)c(F)c21`, the melting point lay within 264 to 267 °C.

In turn, `CCC(=O)COc1cc(N)c(Cl)cc1C(=O)NCCN(CC)CC` registered a melting point of 103 to 104 °C.

Compound `CSc1nc(NN2CCCCC2)c2ncn(C3OC(CCl)C(O)C3O)c2n1` (stereo not drawn) yielded a melting point of 213 to 215 °C.

The compound `COc1cc2[nH]c(=O)c3c(c2cc1OC)CCN(C(=O)c1ccccc1)C3` yielded a melting point of 290 to 297 °C.

`CS(=O)(=O)c1ccc(-c2cnn(-c3ccccc3C=O)c(=O)c2-c2ccc(F)cc2)cc1`: the melting point lay in the range of 234 to 236 °C.

On to `Cc1c(O)c(O)cc2ccccc12`, for which the melting point lay within 97 to 100 °C.

`COc1cccc(-c2nc(C(=O)c3ccc(N)c(OC)c3)n3ccccc23)c1`: the melting point amounted to 210 °C.

With `COCCOc1cc(/C=C/C(=O)NS(=O)(=O)CCC(C)C)n(Cc2ccc(Cl)cc2Cl)n1`, the melting point was in the range of 110 to 114 °C.

In turn, `CCOC(=O)C(Cc1cc2cc(C#N)ccc2o1)c1ccc(O)cc1` (stereo not drawn) gave a melting point of 140 to 142 °C.

`OCCCc1nc2ccccn2n1` displayed a melting point of 71.5 to 73 °C.

On to `O=C(c1cccc(Cl)c1)C1C(=O)c2ccccc2C1=O`, for which the melting point lay within 148 to 149 °C.

`OC1(c2ccc(-c3ccccn3)cc2)CN2CCC1CC2` (stereo not drawn) returned a melting point of 237 to 238 °C.

`CC(=O)c1c(Cl)nc2n(c1=O)CCS2` had a melting point of 135 to 136 °C.

Consider `C[C@H](NC(=O)OC(C)(C)C)C(=O)CCl`, for which the melting point was in the range of 64 to 66.5 °C.

On to `COc1cc2c(cc1O)C(OC)CN(Cc1ccccc1OC)C2` (stereo not drawn), for which the melting point lay in the range of 45 to 47 °C.

`C=CCOC(=O)c1ccc(NC(=O)C(=NO)c2ccc3c(c2)C(C)(C)CCC3(C)C)cc1O`: the melting point is 108 to 109 °C.

In turn, `O=C(O)c1ccc2c(c1)Sc1ccc(Cl)cc1C=C2` had a melting point of 302 to 304 °C.

`O=S(=O)(c1ccc(Br)cc1)N1CCC2(C=Cc3ccccc32)CC1` came in with a melting point of 177 to 178 °C.

Compound `COc1ccc(/C(C)=C/c2ccncc2)cc1OC1CCCC1` displayed a melting point of 78 to 79 °C.

`CON(C)C(=O)Nc1c(C(=O)c2occc2CO)[nH]c2cc(Cl)ccc12`: the melting point is 221 to 222 °C.

The compound `COc1ncnc(-c2cc([N+](=O)[O-])c(C#N)cc2F)c1C` had a melting point of 129 to 131 °C.

The compound `C#CCNc1cc(C(=O)OCC)cc(S(N)(=O)=O)c1Oc1ccccc1` registered a melting point of 189 to 190 °C.

For `O=C(CS(=O)Cc1ccc2c(c1)OCO2)NO` (stereo not drawn), the melting point is 206 °C.
